Laboratory results: patent publication US20220400676A1, “HERBICIDAL COMPOUNDS” (SYNGENTA CROP PROTECTION AG, priority 2019, published 2022)

Experiments:
[1] = tested on: Amaranthus retoflexus (AMARE); assay: Post-emergence herbicidal glasshouse test; assay type: in vivo; conditions: 250 g/ha, evaluated after 13 days
Procedure: (§1) Seeds of a variety of test species are sown in standard soil in pots Amaranthus retoflexus (AMARE), Echinochloa crus-galli (ECHCG), Setaria faberi (SETFA)). After cultivation for one day (pre-emergence) or after 8 days cultivation (post-emergence) under controlled conditions in a glasshouse (at 24/16° C., day/night; 14 hours light; 65% humidity), the plants are sprayed with an aqueous spray solution derived from the formulation of the technical active ingredient in acetone/water (50:50) solution containing 0.5% Tween 20 (polyoxyethelyene sorbitan monolaurate, CAS RN 9005-64-5). Compounds are applied at 250 g/ha unless otherwise stated. The test plants are then grown in a glasshouse under controlled conditions in a glasshouse (at 24/16° C., day/night; 14 hours light; 65% humidity) and watered twice daily. After 13 days for pre- and post-emergence, the test is evaluated for the percentage damage caused to the plant. The biological activities are shown in the following table on a five-point scale (5=81-100%; 4=61-80%; 3=41-60%; 2=21-40%; 1=0-20%).

Setaria faberi (SETFA) [2] = assay: Post-emergence herbicidal glasshouse test; assay type: in vivo; conditions: 250 g/ha, evaluated after 13 days
Procedure: as §1

[3] = tested on: Echinochloa crus-galli (ECHCG); assay: Post-emergence herbicidal glasshouse test; assay type: in vivo; conditions: 250 g/ha, evaluated after 13 days
Procedure: as §1

[4] = tested on: Amaranthus retoflexus (AMARE); assay: Pre-emergence herbicidal glasshouse test; assay type: in vivo; conditions: 250 g/ha, evaluated after 13 days
Procedure: as §1

Setaria faberi (SETFA) [5] = assay: Pre-emergence herbicidal glasshouse test; assay type: in vivo; conditions: 250 g/ha, evaluated after 13 days
Procedure: as §1

[6] = tested on: Echinochloa crus-galli (ECHCG); assay: Pre-emergence herbicidal glasshouse test; assay type: in vivo; conditions: 250 g/ha, evaluated after 13 days
Procedure: as §1

AMARE = assay: Comparative Test (Post-Emergence), weed; assay type: in vivo, Amaranthus retoflexus
Procedure: as §1

ZEAMX = assay: Comparative Test (Post-Emergence), crop; assay type: in vivo, corn

SMILES	percentage damage caused to the plant, five-point scale, AMARE [1]	percentage damage caused to the plant, five-point scale, SETFA (Setaria faberi (SETFA) [2])	percentage damage caused to the plant, five-point scale, ECHCG [3]	percentage damage caused to the plant, five-point scale, AMARE [4]	percentage damage caused to the plant, five-point scale, SETFA (Setaria faberi (SETFA) [5])	percentage damage caused to the plant, five-point scale, ECHCG [6]	% Phytotoxicity AMARE (AMARE; rate 16 g/ha) [%]	% Phytotoxicity AMARE (AMARE; rate 63 g/ha) [%]	% Phytotoxicity AMARE (AMARE; rate 250 g/ha) [%]	% Phytotoxicity ZEAMX (ZEAMX; rate 16 g/ha) [%]	% Phytotoxicity ZEAMX (ZEAMX; rate 63 g/ha) [%]	% Phytotoxicity ZEAMX (ZEAMX; rate 250 g/ha) [%]	% Phytotoxicity AMARE (AMARE; rate 33 g/ha) [%]	% Phytotoxicity ZEAMX (ZEAMX; rate 33 g/ha) [%]
CNc1cc(Oc2cccc(F)c2-c2cc(C(F)F)no2)ncn1 [Compound 2.005]	2 (2=21-40%)	2 (2=21-40%)	2 (2=21-40%)	2 (2=21-40%)	2 (2=21-40%)	2 (2=21-40%)	–	–	–	–	–	–	–	–
Cc1cc(Oc2cccc(Br)c2-c2cc(C(F)F)no2)ncn1 [Compound 2.006]	1 (1=0-20%)	3 (3=41-60%)	3 (3=41-60%)	2 (2=21-40%)	4 (4=61-80%)	5 (5=81-100%)	–	–	–	–	–	–	–	–
COc1ccnc(Oc2cccc(F)c2-c2cc(C(F)F)no2)n1	–	–	–	–	–	–	0	10	20	0	10	20	–	–
Cc1cc(Oc2cccc(Cl)c2-c2cc(C(F)F)no2)ncn1 [Compound 2.007]	2 (2=21-40%)	4 (4=61-80%)	4 (4=61-80%)	4 (4=61-80%)	5 (5=81-100%)	5 (5=81-100%)	–	–	–	–	–	–	–	–
COc1cc(OC)nc(Oc2cccc(F)c2-c2cc(C(F)F)no2)n1	–	–	–	–	–	–	0	–	0	0	–	0	0	0
COc1cc(Oc2cccc(F)c2-c2cc(C(F)F)no2)ncn1 [Compound 2.017, 3-(difluoromethyl)-5-[2-fluoro-6-(6-methoxypyrimidin-4-yl)oxy-phenyl]isoxazole]	4 (4=61-80%)	4 (4=61-80%)	4 (4=61-80%)	5 (5=81-100%)	5 (5=81-100%)	5 (5=81-100%)	–	–	–	–	–	–	–	–
CNc1ncnc(Oc2cccc(F)c2-c2cc(C(F)F)no2)c1Cl [Compound 2.002]	2 (2=21-40%)	1 (1=0-20%)	1 (1=0-20%)	2 (2=21-40%)	1 (1=0-20%)	1 (1=0-20%)	–	–	–	–	–	–	–	–
COc1cc(Oc2cccc(F)c2-c2cc(C(F)F)no2)ncn1 [drawing 58]	–	–	–	–	–	–	60	60	80	0	10	10	–	–
COc1cc(Oc2cccc(Br)c2-c2cc(C(F)F)no2)ncn1 [Compound 2.003]	3 (3=41-60%)	4 (4=61-80%)	4 (4=61-80%)	5 (5=81-100%)	5 (5=81-100%)	5 (5=81-100%)	–	–	–	–	–	–	–	–
COc1cc(Oc2cccc(Cl)c2-c2cc(C(F)F)no2)ncn1 [Compound 2.004]	4 (4=61-80%)	4 (4=61-80%)	4 (4=61-80%)	5 (5=81-100%)	5 (5=81-100%)	5 (5=81-100%)	–	–	–	–	–	–	–	–
Cc1ncnc(Oc2cccc(F)c2-c2cc(C(F)F)co2)c1F [Compound 2.008]	3 (3=41-60%)	1 (1=0-20%)	1 (1=0-20%)	4 (4=61-80%)	4 (4=61-80%)	4 (4=61-80%)	–	–	–	–	–	–	–	–
